The conditions of data set [1]: 101.3 kPa, Liquid, Sing-around technique in a fixed-path interferometer.
Data set [2] in a line: xn = mol fraction of the nth substance listed. To be noted: 283.15 K; 101.3 kPa; Liquid; fixed-path interferometer; x2 = 0.

Data on 3 molecules can be found in the NIST ThermoML archive (doi:10.1016/j.jct.2013.05.003).

Structures are written as SMILES. Numbers after ± are expanded uncertainties.

One may read the speed of sound as the propagation velocity of pressure waves in the medium.

Regarding `CCOCCCN` [3-ethoxy-1-propanamine], the speed of sound in data set [1] (283.15 K) came out at 1386.4 ± 1.6 m/s; in data set [1] (288.15 K), 1364.2 ± 1.6 m/s; in data set [1] (293.15 K), 1342 ± 1.6 m/s; in data set [1] (298.15 K) it was 1321.2 ± 1.6 m/s; in data set [1] (303.15 K), 1300.4 ± 1.6 m/s.
Regarding `O` [water], the speed of sound in data set [1] (283.15 K) is listed as 1447.3 ± 1.3 m/s.
For `O` [water] + CCOCCCN, in data set [2], the speed of sound is 1447.3 ± 1.3 m/s.
